The source of these data is ChEMBL document CHEMBL1127216, “Diastereoselective synthesis of cyclopropyl phenylalanines and their incorporation into dipeptides” (Bioorg Med Chem Lett, 1993).

pIC50: −log10 of the molar value.

Experiment [1] addresses T1, Gastrin/cholecystokinin type B receptor (Mus musculus, UniProt P56481).
T1 sequence (P56481 whole entry): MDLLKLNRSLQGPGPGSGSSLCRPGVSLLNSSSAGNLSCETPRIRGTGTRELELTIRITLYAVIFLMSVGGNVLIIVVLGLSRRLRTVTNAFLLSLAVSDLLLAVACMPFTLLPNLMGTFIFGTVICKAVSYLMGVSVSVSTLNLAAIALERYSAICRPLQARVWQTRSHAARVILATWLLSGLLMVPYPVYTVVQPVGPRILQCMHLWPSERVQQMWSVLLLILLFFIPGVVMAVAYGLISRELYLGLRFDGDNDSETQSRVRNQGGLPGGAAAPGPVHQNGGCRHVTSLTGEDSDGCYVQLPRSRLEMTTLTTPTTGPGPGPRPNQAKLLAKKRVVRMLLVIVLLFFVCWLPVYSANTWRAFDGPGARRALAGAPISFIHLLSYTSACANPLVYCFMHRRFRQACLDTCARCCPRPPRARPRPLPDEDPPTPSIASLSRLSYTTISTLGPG
Put plainly: Compound was tested for the inhibition of specific binding of [125I]bolton Hunter CCK-8 to Cholecystokinin type B receptor in mouse cerebral cortex. The experiment is classed as tissue-based.

Experiment [2] has as its target T2, Cholecystokinin receptor type A (Rattus norvegicus, UniProt P30551).
T2 sequence (P30551 whole entry): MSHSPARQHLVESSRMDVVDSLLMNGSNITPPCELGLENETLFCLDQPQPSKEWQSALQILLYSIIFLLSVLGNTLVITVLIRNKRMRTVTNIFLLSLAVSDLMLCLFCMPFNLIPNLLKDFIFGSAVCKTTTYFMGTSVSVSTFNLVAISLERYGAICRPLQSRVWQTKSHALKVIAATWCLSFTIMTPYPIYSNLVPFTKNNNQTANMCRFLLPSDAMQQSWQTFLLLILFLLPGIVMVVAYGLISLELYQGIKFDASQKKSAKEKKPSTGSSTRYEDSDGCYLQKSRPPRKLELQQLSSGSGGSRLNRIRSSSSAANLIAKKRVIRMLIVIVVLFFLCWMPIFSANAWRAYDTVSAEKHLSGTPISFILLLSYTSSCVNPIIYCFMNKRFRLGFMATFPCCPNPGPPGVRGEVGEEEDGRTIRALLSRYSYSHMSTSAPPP
As to the kind of experiment: Compound was tested for the inhibition of specific binding of [125I]bolton Hunter CCK-8 to Cholecystokinin type A receptor in the rat pancreas.

Regarding `COC(=O)/C(=C/c1ccccc1)NC(=O)[C@@](C)(Cc1c[nH]c2ccccc12)NC(=O)OC1C2CC3CC(C2)CC1C3` (some centres undefined), the pIC50 (as a rule, the IC50 on a negative log10 scale, so that one unit is a factor of ten) in experiment [1] was 6.57.

Turning to `C[C@](Cc1c[nH]c2ccccc12)(NC(=O)OC1C2CC3CC(C2)CC1C3)C(=O)N/C(=C\c1ccccc1)C(=O)O` (some centres undefined), the values for the pIC50 in experiment [1] and in experiment [2] were 7.27 and 7.22, respectively.

With `C[C@](Cc1c[nH]c2ccccc12)(NC(=O)OC1C2CC3CC(C2)CC1C3)C(=O)N[C@@]1(C(=O)O)C[C@H]1c1ccccc1` (some centres undefined), the pIC50 in experiment [1] is 6.85; in experiment [2], 7.08.

Take `COC(=O)[C@@]1(NC(=O)[C@@](C)(Cc2c[nH]c3ccccc23)NC(=O)OC2C3CC4CC(C3)CC2C4)C[C@H]1c1ccccc1` (some centres undefined): the figures for the pIC50 in experiment [1] and in experiment [2] were 8.41 and 7.59, respectively. As for `COC(=O)[C@]1(NC(=O)[C@@](C)(Cc2c[nH]c3ccccc23)NC(=O)OC2C3CC4CC(C3)CC2C4)C[C@H]1c1ccccc1` (some centres undefined), the figures for the pIC50 in experiment [1] and in experiment [2] were 6.22 and 6.14, respectively.
